Test results: patent US5494921A, “Fibrinogen receptor antagonists” (Merck & Co., Inc., priority 1994, dated 1996)

tested on: gel-filtered human platelets; assay: Inhibition of ADP-stimulated platelet aggregation (IC50 Plaggin); assay type: cell-based; conditions: ADP-initiated (10 mM ADP) aggregation of gel-filtered human platelets, fibrinogen 100 ug/ml, Ca2+ 1 mM, 37° C.
Method: Platelet aggregation is measured at 37° C. in a Chronolog aggregometer. The reaction mixture contains gel-filtered human platelets (2×10^8 per ml), fibrinogen (100 micrograms per ml (ug/ml)), Ca^2 +(1 mM), and the compound to be tested. The aggregation is initiated by adding […] ADP 1 minute after the other components are added. The reaction is then allowed to proceed for at least 2 minutes. The extent of inhibition of aggregation is expressed as the percentage of the rate of aggregation observed in the absence of inhibitor. The IC50 is the dose of a particular compound inhibiting aggregation by 50% relative to a control lacking the compound.
In addition to the following preparative procedures, several examples of in vitro bioactivity of compounds within the scope of the present invention are indicated. To illustrate, one test which is used to evaluate fibrinogen receptor antagonist activity is based on evaluation of inhibition of ADP-stimulated platelets. Aggregation requires that fibrinogen bind to and occupy the platelet fibrinogen receptor site. Inhibitors of fibrinogen binding inhibit aggregation. In the ADP-stimulated platelet aggregation assay used to determine inhibition associated with the compounds claimed in the instant invention, human platelets are isolated from fresh blood, collected into acid citrate/dextrose o by differential centrifugation followed by gel filtration on Sepharose 2B in divalent ion-free Tyrode's buffer (pH 7.4) containing 2% bovine serum albumin.

Molecule	IC50
CCCCS(=O)(=O)N[C@@H](CNC(=O)C1CC1C(=O)NCCC1CCNCC1)C(=O)O (some centres unmarked)	210 nM
CCCCS(=O)(=O)N[C@@H](CNC(=O)[C@@H]1C[C@H]1C(=O)NCCC1CCNCC1)C(=O)O	77 nM
CCCCS(=O)(=O)N[C@@H](CNC(=O)[C@H]1C[C@@H]1C(=O)NCCC1CCNCC1)C(=O)O	580 nM
CCCCS(=O)(=O)N[C@@H](CCNC(=O)[C@@H]1C[C@H]1C(=O)NCCC1CCNCC1)C(=O)O	3500 nM
CCCCS(=O)(=O)N[C@@H](CCNC(=O)[C@H]1C[C@@H]1C(=O)NCCC1CCNCC1)C(=O)O	17000 nM
CCCCS(=O)(=O)N[C@@H](CNC(=O)C1CC1CC(=O)NCCC1CCNCC1)C(=O)O (some centres unmarked)	140 nM
C[C@H](CC(=O)O)NC(=O)[C@@H]1C[C@H]1C(=O)NCCC1CCNCC1	17000 nM

tested on: gp IIb/IIIa complex; assay: not given; conditions: cited from earlier work

Molecule	affinity for the gp IIb/IIIa complex
Echistatin	high affinity
